Each structure is given as a SMILES string.

In series [1] the test system is rats that have undergone an intestinal resection (short-bowel syndrome model). The experiment in a line: Short-bowel syndrome model: enteral nutrition supplemented with citrulline or arginine after intestinal resection. The series is classed as in vivo, Wistar rats. As to conditions: for weight gain: resected rats (approx. 80% of small intestine), after 10 days of enteral nutrition, L-citrulline 1 g/kg/day or L-arginine 0.994 g/kg/day, AANE approx. 15 g, SHAM approx. 21 g (FIG. 1). The source says: The rat was chosen as model to evaluate the effect of supplementation with citrulline within the framework of an intestinal insufficiency and in particular within the framework of the short-bowel syndrome.
24 Wistar rats weighing approximately 220-230 g were used. They were acclimatized in metabolic cages for 5 days before being operated on; during this period they had free access to water and standard laboratory food.
The intakes of L-arginine and L-citrulline correspond to those used in humans taking account of the difference in metabolic rate between the two species (rate approximately 10 times higher in the rat).
Enteral nutrition was carried out for 10 days continuously by the insertion of a gastric probe. The nitrogen intake was 2 g/kg/day and the calorie intake 290 kcal/kg/day. The food rations were rendered isonitrogenous by intake of a mixture of non-essential amino acids (Gly, Ala, Ser, His, Pro, Asn) (Sigma-Aldrich).
Three types of measurements were carried out in particular: a daily measurement of the weight of the animals, a measurement of the concentration of arginine in the plasma at the end of the experiment by ion-exchange chromatography using a JEOL device and a daily monitoring of the cumulative nitrogen balance by adding up the daily differences between the quantity of nitrogen absorbed and the quantity of nitrogen evacuated in the urine by pyroluminescence using an ANTEK apparatus.

Series [2] relates to elderly malnourished rats. The experiment in a line: Tibialis muscle protein synthesis rate (13C-valine incorporation) in malnourished aged rats after renutrition. It counts as in vivo, Sprague-Dawley rats. As to conditions: L-citrulline 5 g/kg/d for a week. As for the experimental part: (§1) Male Sprague-Dawley rats (Charles River Laboratories, L'Arbresles, France) aged 19 months were placed in individual cages, in a thermostatically controlled ambience (23°±1° C.), and subjected to a 12-hour light-darkness cycle (darkness from 08.00 hours to 20.00 hours). Their acclimatization was carried out over 2 weeks, during which their spontaneous food consumption was measured. They were fed a standard diet (A04, UAR, Villemoisson-sur-Orge, France) containing 17% proteins, 3% lipids, 59% carbohydrates and 21% water, fibres, vitamins and minerals. The average food intake during this period is 34.4 g/day.
(§2) After the acclimatization period, the rats were divided into 4 groups (cf. FIG. 5): a control group comprising rats (n=10) fed ad libitum (AL) for 12 weeks and 3 other groups subjected to a food restriction during the same period, i.e. fed with only 50% of the spontaneous ingesta (i.e. 17.2 g), with the standard diet (UAR A04). […]
The synthesis rate was determined on the TIB by the method of injecting a dose of a tracer amino acid charge. […]

Series [3] has as its system elderly malnourished rats. In words: Plasma amino acid concentrations in malnourished aged rats after renutrition. It counts as in vivo, Sprague-Dawley rats. As to conditions: diet enriched with L-citrulline 5 g/kg/d for a week, average ± SDM, p<0.05 vs AL, R and AANE. As for the experimental part:
as §1
(§3) After the acclimatization period, the rats were divided into 4 groups (cf. FIG. 5): a control group comprising rats (n=10) fed ad libitum (AL) for 12 weeks and 3 other groups subjected to a food restriction during the same period, i.e. fed with only 50% of the spontaneous ingesta (i.e. 17.2 g), with the standard diet (UAR A04).
(§4) At the end of the restriction period, the animals (n=10) in one group were […] sacrificed (group R) and the rats of the two remaining groups were fed for a week with 90% of the spontaneous ingesta (i.e. 30.9 g), either on a diet enriched with non-essential amino acids (AANE group: alanine, asparagine, glycine, serine, histidine, and proline supplied in equimolar fashion) or on a diet enriched with L-citrulline (5 g/kg/d) (citrulline group). The intakes of the two groups were isonitrogenous and isocaloric. The limitation to 90% of the spontaneous intakes makes it possible to be certain that the rats consume all of the food offered to them (Walrand et al., 2000).
(§5) At the end of the experimental period, the rats, in post-absorptive situation, were anaesthetized with isoflurane (3%) and received a subcutaneous injection of ^13C-valine at variable times before being killed by decapitation.
(§6) The blood was collected on heparin and centrifuged (3500 rpm, at +4° C. for 15 minutes). […]
(§7) The results are presented in the form of an average ±standard deviation from the mean (SDM). The results are analyzed by an ANOVA followed by an a posteriori Duncan test. […]

Assay in series [4]: as above
It counts as in vivo, Sprague-Dawley rats. As to conditions: male, Sprague-Dawley, rat, plasma, oral; elderly malnourished rats, diet enriched with L-citrulline 5 g/kg/d for a week; average ± SDM; p<0.05 vs AL, R and AANE. As for the experimental part: as §1, §3, §4, §5, §6, §7

The test system of series [5] is elderly malnourished rats. In words: Tibialis muscle protein content (Gornall method) in malnourished aged rats after renutrition. It counts as in vivo, Sprague-Dawley rats. As to conditions: after renutrition phase, L-citrulline 5 g/kg/d for a week; CIT vs AL, R, AANE, p<0.05 (FIG. 4). As for the experimental part: as §1, §2
Determination of the protein content was carried out on the TIB. […] The proteins content of the TIB is measured by the Gornall method. […]
as §7

Series [6] relates to elderly malnourished rats. In words: Tibialis muscle amino acid content in malnourished aged rats after renutrition. It counts as in vivo, Sprague-Dawley rats. As to conditions: diet enriched with L-citrulline 5 g/kg/d for a week, average ± SDM, p<0.05 vs AL, R and AANE. As for the experimental part: as §1, §3, §4
The 2 Tibialis muscles (TIB) were removed in order to determine on the one hand the protein and amino acid content (right TIB) and on the other hand, the fractional (FSR) and absolute (ASR) protein synthesis rates (left TIB). […]
as §7

On to `NC(=O)NCCC[C@H](N)C(=O)O` [CIT, L-citrulline], for which, in series [1], the weight gain result is on record as “approximately 21 g”. For the same molecule, the cumulative nitrogen balance entry in series [1] (resected rats, 10 days of supplemented enteral nutrition, compared with SHAM control (FIG. 3)) is given as “re-establish a nitrogen balance in the animals that have undergone resection, at the same level as that of the control group”. The “fractional protein synthesis rate (FSR) in the Tibialis muscle” value in series [2] (compared with the other groups (FIG. 5A)) is recorded as “does not seem significant”. Further, the “absolute protein synthesis rate (ASR) in the Tibialis muscle” value in series [2] (CIT vs R and AANE, p<0.05 (FIG. 5B)) is given as “significant increase”. In series [3], the “Concentration of Ornithine in the plasma” value was found to be 223 ± 27 µmol/L and the “concentration of arginine in the plasma” value stood at 561 ± 55 µmol/L. In addition, the concentration at 1 week in series [4] is 2390 ± 279 µM. Moreover, in series [5], the “protein concentrations in the TIB” value is “significant increase”. Moreover, in series [6], the “Concentration of Arginine in the TIB” value stood at 203 ± 35 nmol/g, the “Concentration of Citrulline in the TIB” value is listed as 616 ± 104 nmol/g and the “Concentration of Ornithine in the TIB” value was 20 ± 4 nmol/g.
Regarding `N=C(N)NCCC[C@H](N)C(=O)O` [ARG, L-arginine, reference compound], in series [1], the weight gain result is “approximately 17 g”. For the same molecule, the “concentration of arginine in the plasma” value in series [1] (resected rats, after 10 days of supplemented enteral nutrition, compared with SHAM control (FIG. 2)) is reported as “increase the concentration of arginine in the plasma compared with the control”.

The record behind these values is US20050239891A1, “Use of citrulline within the framework of intestinal insufficiency” (priority 2003, published 2005).
